In patent US20050181076A1, “Compositions and methods for treatment of diabetes” (priority 1999, published 2005):
Blank lines part the entries; values can stand above or below the compound they belong to.

How the values were obtained:
diabetics = test: Brickellia flavonoids administered to diabetics; format: in vivo; conditions: for effectiveness in treating diabetes: alone or in combination; for results in diabetics compared with the extract: flavonoids extracted and fractionated from Brickellia californica
Description: The flavonoids specifically used were dihydrokaemferol and apigenin, a flavone. […] I have discovered an underlying “molecular switch” that controls both forms of diabetes. This “switch” can be operated by luteolin and similar flavonoids.

[1] = system: diabetic test animals (rats and mice); test: Brickellia extract and flavonoids in diabetic test animals; format: in vivo
Experimental: It is believed that the Brickellia californica extract includes the flavonoids dihydrokaemferol, apigenin, luteolin, myricetin and quercetin. Further, the many other species of Brickellia contain these, or similar flavonoids, albeit in different proportions, and should also be effective in treatment of diabetes. Experiments with diabetic test animals (rats and mice) were carried out. […] Further, the administration of synthetic versions of the Brickellia flavonoids were also effective at lowering glucose levels.

[2] = system: Type 1 (BB/Wor) diabetic rats; test: single luteolin treatment in chronic Type I diabetic rats, blood glucose 0-6 hours; format: in vivo, rat; conditions: for average blood glucose at 6 hours: from 415 (insulin) and 445 (luteolin) mg/dl at time 0; for decrease in blood glucose levels: within 6 hours, luteolin 3 mg intragastrically, PZI insulin 0.9-1.2 mU/day subcutaneous
Experimental: Animal tests of luteolin were made at BRM (Biomedical Research Models, Inc.) an East coast contract research organization (CRO) that specializes in diabetes research. […] Historically, these strains have been widely used in similar pre-clinical studies to predict anti-diabetogenic efficacy. […] In this study, lean male diabetics were randomly assigned to 3 treatment groups (3-4 rats/group). […] Blood glucose was evaluated from time 0 through 6 hours (11 AM-5 PM). […] This response was fully consistent with prior work in the Type I rat model. […] In comparison, there was no reduction in the hyperglycemic state in the control group over the same interval (414 to 404 mg/dl).

[3] = system: Type II (BBZDR/Wor) diabetic rats; test: extended (two weeks) luteolin treatment of obese Type II diabetic rats; format: in vivo, rat
Description: In the next experiment we elected to provide these same rats with a standardized dose over an extended period of treatment. […] The data were expressed for each rat as a percentage change in blood glucose level relative to each individual pre-treatment level.

[4] = target: Kv1.3 voltage gated potassium channel (Homo sapiens, UniProt P22001); test: patch clamp analysis of Kv1.3 block; format: cell-based
Description: When the toxic CD8^− Natural Killer Cells combines with the CD4^− Helper T Cells at cystein they electronically stimulate calmodulin. This voltage sensor activates one of the 80+ super gene channels necessary for the activation of the CD4^− and CD8^− T Cells, Kv1.3 a voltage gated potassium channel. If this channel is not activated by calmodulin the T-Cells remain in their resting states. […] There are 200 pores in a resting Beta cell. When cell potential reaches 1.3 nVolts, the Kv1.3, voltage gated potassium channel opens to expose the tyrosine kinase tails. These kinases when stimulated turn on the ras-Oncogene, a cancer promoter, which turns on Protein Kinase C, another tumor promoter. These drive the Nuclear Factors of the Activated T-Cell, such as cAMP; which stimulates the susceptibility genes associated with diabetes such as those on chromosome 19q13.3. These in turn produce InterLeukin-2, an inflammatory cytokine messenger signaling further T-Cell proliferation. When CD8^− cells sample the external receptors of the Beta cell, they find and bind to laminin to sites, such as AGM1, and releases InterLeukin-2 upon calcium loading. This inflammatory cytokine causes cell activation and suppression of insulin release. […]

[5] = system: Type II (BBZDR/Wor) diabetic rats; test: luteolin dose study in chronic Type 2 diabetic rats over 24 hr; format: in vivo, rat
Experimental: Animal tests of luteolin were made at BRM (Biomedical Research Models, Inc.) an East coast contract research organization (CRO) that specializes in diabetes research. […] Historically, these strains have been widely used in similar pre-clinical studies to predict anti-diabetogenic efficacy.
First, a 24 hour baseline study was performed on 9 chronic Type 2 rats. We found no significant change in hyperglycemia over this 24 hour period of analysis in the diabetic rats. […] Blood glucose analysis was evaluated every 2 hours.
Unfortunately, that animal died sometime before the 24 hr time point as a result of an accidental perforation of the esophagus during the administration of drug.

Chain of Kv1.3 voltage gated potassium channel (P22001 whole entry): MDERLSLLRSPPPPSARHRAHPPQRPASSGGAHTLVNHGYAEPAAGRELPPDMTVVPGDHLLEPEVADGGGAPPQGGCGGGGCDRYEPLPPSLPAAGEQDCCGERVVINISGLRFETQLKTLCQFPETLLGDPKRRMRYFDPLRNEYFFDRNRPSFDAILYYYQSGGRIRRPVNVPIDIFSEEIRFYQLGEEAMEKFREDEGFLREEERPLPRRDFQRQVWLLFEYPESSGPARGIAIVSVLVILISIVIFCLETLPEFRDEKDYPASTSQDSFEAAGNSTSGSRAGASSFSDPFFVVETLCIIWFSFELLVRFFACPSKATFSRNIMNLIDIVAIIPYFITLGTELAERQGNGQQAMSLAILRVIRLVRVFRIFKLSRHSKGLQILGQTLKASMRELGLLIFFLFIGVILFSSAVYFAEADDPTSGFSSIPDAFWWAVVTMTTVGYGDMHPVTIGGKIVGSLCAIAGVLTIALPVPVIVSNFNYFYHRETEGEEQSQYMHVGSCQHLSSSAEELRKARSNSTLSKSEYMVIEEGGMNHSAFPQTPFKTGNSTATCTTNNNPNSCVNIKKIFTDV

Compound: O=c1c(O)c(-c2cc(O)c(O)c(O)c2)oc2cc(O)cc(O)c12 [myricetin]
effectiveness in treating diabetes (diabetics): effective in treating diabetes

block of Kv1.3 channel at 100 nM ([4]; luteolin tested at 100 nM, cell remained in its resting state): blocked completely
block of Kv1.3 channel ([4]; patch clamp analysis): blocks this channel
Compound: O=c1cc(-c2ccc(O)c(O)c2)oc2cc(O)cc(O)c12 [luteolin]
rank among treatments involving a single flavonoid [1]: the most effective agent
average blood glucose at 6 hours [2]: 307 mg/dL
decrease in blood glucose levels [2]: 31%
average drop of blood glucose levels ([3]; Type II rats, 50 mg 3x/day for two weeks): 41.1%
average blood glucose after treatment ([3]; Type II rats, 50 mg 3x/day for two weeks, from 660 mg/dl): 389 mg/dL
increase in blood glucose in one rat ([3]; one rat with esophageal fistula that likely prohibited effective dosing, 50 mg 3x/day two weeks): 9.3%
effectiveness in treating diabetes (diabetics): effective in treating diabetes
decrease in blood glucose levels, 50 mg three times a day ([5]; Type 2 diabetic rats, 150 mg total, within 24 hr): 10.2%
drop in blood glucose, 150 mg three times a day ([5]; Type 2 diabetic rats, 450 mg total, 24 hr): 22.9%
decrease in glucose, 250 mg three times a day ([5]; Type 2 diabetic rats, 750 mg total, 24 hr): 27.7%
reduction of hyperglycemia over all doses ([5]; Type II diabetic rats, over a 24 hour period, dose-dependent): 10-28%
reduction of blood glucose in one rat ([5]; one Type 2 rat, intermediate dose (150 mg), within 18 hr): 52%
blood glucose of one rat after treatment ([5]; one Type 2 rat, intermediate dose, from 777 mg/dl, within 18 hr): 372 mg/dL

Compound: O=C1c2c(O)cc(O)cc2O[C@H](c2ccc(O)cc2)[C@H]1O [dihydrokaemferol]
results in diabetics compared with the extract (diabetics): results similar to those produced by the extract

Compound: O=c1cc(-c2ccc(O)cc2)oc2cc(O)cc(O)c12 [apigenin]
results in diabetics compared with the extract (diabetics): results similar to those produced by the extract

Compound: insulin [reference compound]
average blood glucose at 6 hours [2]: 112 mg/dL
decrease in blood glucose levels [2]: 75%
